The values that follow come from patent US20050020615A1, “CCI-779 lyophilized formulations” (Wyeth, priority 2003, published 2005).

One series is described as follows: Solubility in water. In kind it is physicochemical.
Series [1] is described as follows: Chemical stability of CCI-779 in solution (pH, chelating agent). The format is physicochemical. The following applies: citric acid at less than 0.01% w/v. From the text: Desirably, when a significant amount of water (e.g,. 40% v/v or greater) is present in the solvent blend of the pre-lyophilized solution, it is advantageous to adjust the pH to 4 to 6 as this is the range of maximum stability for CCI-779. In one embodiment, the pH is adjusted to a pH of about 5.5.
In some embodiments, components with chelating activity are included in the formulations of the invention as the sole “antioxidant component”. Typically, such metal-binding components, when acting as chelating agents are used in the lower end of the range of concentrations for the antioxidant component provided herein. […] Additionally, such chelating agents may be used in combination with other antioxidants as part of the antioxidant component of the invention. For example, an acceptable formulation may contain both citric acid and d,l-α-tocopherol. Optimal concentrations for the selected antioxidant(s) can be readily determined by one of skill in the art, based upon the information provided herein. All percentages are expressed a % w/v in the pre-lyophilized solution.
Desirably, the pre-lyophilization solution has a pH in the range of 4 to 6, which has been found by the inventor to improve the stability of CCI-779. Depending upon the components of the pre-lyophilization solution, the pH can be adjusted using any suitable inorganic or organic acid, or base, as needed. […]

Series [2] relates to histologically diverse tumor cells. The following applies: in vitro; cited from earlier work.
Series [3] relates to human tumor xenografts of diverse histological types. Conditions: nude mice; cited from earlier work.
Another series deals with orthotopic glioma. The following applies: nude mice; cited from earlier work.
The test system of series [4] is human glioblastoma cell line. The following applies: in vitro, platelet-derived growth factor; cited from earlier work.

Take `CO[C@H]1C[C@@H]2CC[C@@H](C)[C@@](O)(O2)C(=O)C(=O)N2CCCC[C@H]2C(=O)O[C@H]([C@H](C)C[C@@H]2CC[C@@H](OC(=O)C(C)(CO)CO)[C@H](OC)C2)CC(=O)[C@H](C)/C=C(\C)[C@@H](O)[C@@H](OC)C(=O)[C@H](C)C[C@H](C)/C=C/C=C/C=C/1C` [CCI-779, rapamycin 42-ester with 3-hydroxy-2-(hydroxymethyl)-2-methylpropionic acid]: the solubility in water result in “Solubility in water” was “poor solubility in water”. In series [1], the “effect of citric acid on stability of CCI-779” value is listed as “enhanced the stability”. The “growth of tumor cells” value in series [2] was “inhibit the growth”. Further, the activity against xenografts entry in series [3] is “has activity”. The “activity in orthotopic glioma model” value with orthotopic glioma is “active”. For the same molecule, the “growth factor-induced stimulation of cells” value in series [4] is recorded as “markedly suppressed”.
